Assay results: patent US20150232509A1, “SPIRO RING COMPOUNDS AS HEPATITIS C VIRUS (HCV) INHIBITORS” (SUNSHINE LAKE PHARMA CO., LTD., priority 2012, published 2015)

What was measured:
HCV GT1a replicon cells = assay: HCV Replicon assay, GT1a replicon cells (Luciferase / NEO qPCR); format: cell-based; details: Hepatitis C virus, 72 hours incubation, read-out: EC50 against HCV 1a genotype
Description: (§1) An HCV Replicon assay was utilized in the present invention, and was prepared, developed and validated as described in Science, 1999, 285 (5424), 110-3 and J. Virol., 2003, 77 (5), 3007-19.
(§2) HCV GT1a, GT1b and GT2a replicon cells were used to test the currently described compound series as well as wild-type cells HCV 1b and resistant cells Y93H, L31F, P32L and 1302V. […]
(§3) The GT1a cells and GT1b cells were seeded into 96-well plates (8,000 cells in 125 μL/well) respectively; each compound was diluted to desired concentration using 5-fold serial dilutions protocol, 10 doses in duplicate, and added to wells with POD™ 810 Plate Assembler. The final concentration of DMSO was 0.5%; the plates were incubated in a CO2 incubator for 72 hours; after that, 40 μL of Luciferase assay substrate (Promega Bright-Glo) was added to each well, and detected by a chemiluminescence detection system (Topcount Microplate Scintillation and Luminescence Counter) 5 minutes later; data analysis.
(§4) The GT1a cells and GT1b cells were seeded into 96-well plates (8,000 cells in 125 μL/well) respectively; each compound was diluted to desired concentration using 5-fold serial dilutions protocol, 10 doses in duplicate, and added to wells with POD™ 810 Plate Assembler., the final concentration of DMSO was 0.5%; the cells were incubated in a CO2 incubator for 72 hours; quantitative PCR. • Sample preparation: the supernatant was removed, 100 μL of FCW buffer solution was added to each well, washed carefully and discarded the solution; 50 μL of lysate FCP was added to each well, the cells was lysed as PCR template and PCR template was diluted with DEPC water as sample template. • Quantitative PCR: preparation of reaction mixture according to PCR system; the reaction mixture was dispensed into a 384-well PCR reaction plate (specially for quantitative); and a standard template which was diluted in proportion was distributed into the plate; and the sample template was distributed into the plate; then the 384-well plate was sealed with closure plate membrane; the […] PCR machine was operated by procedures; data analysis. 3. Data Processing: the EC50 Values of Compounds were Analyzed by GraphPad Prism Software.

HCV GT1b replicon cells = assay: HCV Replicon assay, GT1b replicon cells (Luciferase / NEO qPCR); format: cell-based; details: Hepatitis C virus, 72 hours incubation, read-out: EC50 against HCV 1b genotype
Description: as §1, §2, §3, §4

`COC(=O)N[C@H](C(=O)N1CCC[C@H]1c1nc2cc(-c3ccc(-c4ccc5[nH]c([C@@H]6CCCN6C(=O)[C@@H](NC(=O)OC)C(C)C)nc5c4)c4c3CCC43CCCC3)ccc2[nH]1)C(C)C` [Example 1] showed an EC50 (HCV GT1a replicon cells) of 0.102 nM and an EC50 (HCV GT1b replicon cells) of 0.041 nM.
With `COC(=O)N[C@H](C(=O)N1CCC[C@H]1c1nc(-c2ccc(-c3ccc(-c4c[nH]c([C@@H]5CCCN5C(=O)[C@@H](NC(=O)OC)C(C)C)n4)c4c3C3(CCCC3)CC4)cc2)c[nH]1)C(C)C` [Example 2] the EC50 (HCV GT1a replicon cells) was 0.325 nM and the EC50 (HCV GT1b replicon cells) was 0.009 nM.
Molecule `COC(=O)N[C@H](C(=O)N1CCC[C@H]1c1ncc(-c2ccc(-c3ccc(-c4ccc5[nH]c([C@@H]6CCCN6C(=O)[C@@H](NC(=O)OC)C(C)C)nc5c4)c4c3C3(CCCC3)CC4)cc2)[nH]1)C(C)C` [Example 3] has an EC50 (HCV GT1a replicon cells) of 0.097 nM and an EC50 (HCV GT1b replicon cells) of 0.032 nM.
In the case of `COC(=O)N[C@H](C(=O)N1CCC[C@H]1c1ncc(-c2ccc(-c3ccc(-c4ccc5[nH]c([C@@H]6CCCN6C(=O)[C@@H](NC(=O)OC)C(C)C)nc5c4)c4c3CCC43CCCC3)cc2)[nH]1)C(C)C` [Example 4], the EC50 (HCV GT1a replicon cells) is reported as 0.085 nM and the EC50 (HCV GT1b replicon cells) is reported as 0.029 nM.
With `COC(=O)N[C@H](C(=O)N1CCC[C@H]1c1ncc(-c2ccc(-c3ccc(-c4cnc([C@@H]5CCCN5C(=O)[C@@H](NC(=O)OC)C(C)C)[nH]4)c4c3CCC43CCCC3)cc2)[nH]1)C(C)C` [Example 5] the EC50 (HCV GT1a replicon cells) was 2.49 nM and the EC50 (HCV GT1b replicon cells) was 0.086 nM.
For `COC(=O)N[C@H](C(=O)N1CCC[C@H]1c1nc(-c2ccc(-c3ccc(-c4ccc(-c5cnc([C@@H]6CCCN6C(=O)[C@@H](NC(=O)OC)C(C)C)[nH]5)cc4)c4c3CCC43CCCC3)cc2)c[nH]1)C(C)C` [Example 6], the EC50 (HCV GT1a replicon cells) was 1.37 nM and the EC50 (HCV GT1b replicon cells) was 0.208 nM.
`COC(=O)N[C@H](C(=O)N1CCC[C@H]1c1ncc(C#Cc2ccc(C#Cc3cnc([C@@H]4CCCN4C(=O)[C@@H](NC(=O)OC)C(C)C)[nH]3)c3c2CCC32CCCC2)[nH]1)C(C)C` [Example 7] showed an EC50 (HCV GT1a replicon cells) of 0.955 nM and an EC50 (HCV GT1b replicon cells) of 0.106 nM.
With `CC(C)[C@H](NC(=O)N1CCOCC1)C(=O)N1CCC[C@H]1c1ncc(-c2ccc(N3CCC(c4cnc([C@@H]5CCCN5C(=O)[C@@H](NC(=O)N5CCOCC5)C(C)C)[nH]4)CC3)c3c2CCC32CCCC2)[nH]1` [Example 8] the EC50 (HCV GT1a replicon cells) was 5.44 nM and the EC50 (HCV GT1b replicon cells) was 1.33 nM.
Molecule `CCC(C)[C@H](NC(=O)OC)C(=O)N1CCC[C@H]1c1nc2ccc(-c3ccc(-c4ccc(-c5cnc([C@@H]6CCCN6C(=O)[C@@H](NC(=O)OC)C(C)C)[nH]5)cc4)c4c3CCC43CCCC3)cc2[nH]1` (stereo partly drawn) [Example 9] has an EC50 (HCV GT1a replicon cells) of 0.097 nM and an EC50 (HCV GT1b replicon cells) of 0.032 nM.
`CC(C)[C@H](NC(=O)OC(C)(C)C)C(=O)N1CCC[C@H]1c1ncc(-c2ccc(C3CCC(c4cnc([C@@H]5CCCN5C(=O)[C@@H](NC(=O)OC(C)(C)C)C(C)C)[nH]4)CC3)c3c2CCC32CCCC2)[nH]1` (stereo partly drawn) [Example 10] showed an EC50 (HCV GT1a replicon cells) of 9.86 nM and an EC50 (HCV GT1b replicon cells) of 3.46 nM.
Molecule `CNC(=O)N[C@H](C(=O)N1C2CC2C[C@H]1c1nc2ccc(-c3ccc(-c4ccc(-c5cnc([C@@H]6CCCN6C(=O)[C@@H](NC(=O)OC)C(C)C)[nH]5)cc4)c4c3C3(CCCC3)CC4)cc2[nH]1)C(C)C` (stereo partly drawn) [Example 11] has an EC50 (HCV GT1a replicon cells) of 0.447 nM and an EC50 (HCV GT1b replicon cells) of 0.096 nM.
With `COC(=O)N[C@@H](C)C(=O)N1CCC[C@H]1c1ncc(-c2ccc(-c3ccc(-c4cnc([C@@H]5CCCN5C(=O)[C@H](C)NC(=O)OC)[nH]4)c4c3C3(CCCC3)CC4)cc2)[nH]1` [Example 12] the EC50 (HCV GT1a replicon cells) was 0.856 nM and the EC50 (HCV GT1b replicon cells) was 0.018 nM.
With `COC(=O)N[C@H](C(=O)N1CCC[C@H]1c1ncc(C#Cc2ccc(-c3ccc(-c4cnc([C@@H]5CCCN5C(=O)[C@@H](NC(=O)OC)C(C)C)[nH]4)cc3)c3c2CCC32CCCC2)[nH]1)C(C)C` [Example 13] the EC50 (HCV GT1a replicon cells) was 0.438 nM and the EC50 (HCV GT1b replicon cells) was 0.032 nM.
With `COC(=O)N[C@H](C(=O)N1C[C@@H](C)C[C@H]1c1ncc(-c2ccc(-c3ccc(-c4cnc([C@@H]5C[C@H](C)CN5C(=O)[C@@H](NC(=O)OC)C(C)C)[nH]4)c4c3C3(CCCC3)CC4)cc2)[nH]1)C(C)C` [Example 14] the EC50 (HCV GT1a replicon cells) was 0.785 nM and the EC50 (HCV GT1b replicon cells) was 0.011 nM.
`COC(=O)N[C@H](C(=O)N1CCC[C@H]1c1ncc(-c2ccc(-c3ccc(-c4cnc([C@@H]5CCCN5C(=O)[C@@H](NC(=O)OC)C5CCCCC5)[nH]4)c4c3C3(CCCC3)CC4)cc2)[nH]1)C1CCCCC1` [Example 15] showed an EC50 (HCV GT1a replicon cells) of 0.886 nM and an EC50 (HCV GT1b replicon cells) of 0.029 nM.
